Results from BigSolDB 2.1.

O=c1cc(CBr)c2ccccc2[nH]1
solubility (mole fraction)
Settings | 273.15 K | 278.15 K | 283.15 K | 288.15 K | 293.15 K | 298.15 K | 303.15 K | 308.15 K | 313.15 K
in 1,4-dioxane | – | – | – | 0.000504 | 0.000625 | 0.000767 | 0.00092 | 0.00111 | 0.00137
in 2-butanone | 0.000321 | 0.000365 | 0.000408 | 0.000455 | 0.000511 | 0.00057 | 0.000634 | 0.00071 | 0.000792
in DMF | 0.00214 | 0.00272 | 0.00329 | 0.00399 | 0.00464 | 0.00542 | 0.00634 | 0.00729 | 0.00828
in DMSO | – | – | – | – | 0.0141 | 0.0185 | 0.0232 | 0.0284 | 0.0338
in NMP | 0.0044 | 0.00524 | 0.0062 | 0.00719 | 0.00827 | 0.00939 | 0.0108 | 0.0125 | 0.0143
in acetonitrile | 8e-05 | 9e-05 | 0.000104 | 0.000118 | 0.000134 | 0.00015 | 0.000171 | 0.000196 | 0.000223
in ethanol | 0.000173 | 0.000188 | 0.000206 | 0.000227 | 0.000247 | 0.000271 | 0.000301 | 0.000338 | 0.000385
in isopropanol | 0.000136 | 0.000154 | 0.000177 | 0.0002 | 0.000224 | 0.000248 | 0.000279 | 0.000316 | 0.00036
in methanol | 0.000113 | 0.000129 | 0.000146 | 0.000165 | 0.000186 | 0.000207 | 0.000234 | 0.000265 | 0.000303
in n-butanol | 0.00029 | 0.000311 | 0.000333 | 0.000361 | 0.000391 | 0.000425 | 0.000461 | 0.000508 | 0.000558
in n-propanol | 0.000224 | 0.00024 | 0.000262 | 0.000283 | 0.000309 | 0.000341 | 0.000379 | 0.000425 | 0.000476
in toluene | 1.5e-05 | 1.9e-05 | 2.3e-05 | 2.8e-05 | 3.2e-05 | 3.8e-05 | 4.3e-05 | 4.9e-05 | 5.6e-05
